Measured values taken from patent publication US10865203B2, “Ligands selective to alpha 6 subunit-containing GABAA receptors and their methods of use” (UWM Research Foundation, Inc., priority 2015, dated 2020).
Entries after “also recorded” stand apart in the source; their conditions may differ.

Tests used:
[1] = test system: METH-impaired PPI in C57/B6 mice; experiment: PPI test, methamphetamine-impaired prepulse inhibition; assay type: in vivo, mouse; details: for rescue of METH-impaired PPI: mice, compound 10 mg/kg i.p. 15 min before METH 2 mg/kg i.p.
Method: All animal experiments conducted at NTU were approved by the Institutional Animal Care and Use Committee of College of Medicine, National Taiwan University. C57/B6 (8-10 weeks) mice were used for the PPI test and Wistar rats (8-9 weeks) were used in the migraine model. Animals were housed in an animal room with a 12-h light/12-h dark cycle and free access to food and water.
The PPI test was conducted with a PPI apparatus (SR-LAB, San Diego Instruments, San Diego, Calif.) consisting of a startle chamber equipped with various programming acoustic stimulations. After acclimation, the mouse was gently placed in the startle chamber for a 4 min acclimation period with a background noise of 65 dB, which continued throughout the whole PPI test session. One PPI test session consisted of 4 types of startle trials, including the trial with the startle pulse (115 dB) alone (PULSEALONE; 115 dB, 20 ms), two trials with the startle pulse paired with 71 and 77 dB prepulses, respectively (PREPULSE+PULSE; 71 dB+115 dB and 77 dB+115 dB), and the trial without stimulus (NOSTIM; background 65 dB only). A test session started and ended, respectively, with four NOSTIM trials and four PULSEALONE trials. In between, each of the four types of trials was presented 14 times randomly, that is, 56 trials were given in a test session. The intertrial interval was given randomly from 5 to 20 s. In the PREPULSE+PULSE trial, a 71 or 77 dB prepulse was given 120 ms before the 115 dBpulse. The magnitude of PPI (PPI %) was determined, after summarizing the startle responses in PULSEALONE and PREPULSE+PULSE trials, according to the equation (PULSEALON−PREPULSE+PULSE)/PULSEALONE×100%. The tested compound or vehicle was given to the animal for 15 min, followed by methamphetamine (2 mg/kg). The PPI test was conducted 10 min after injection of methamphetamine. Data were expressed as the mean±S.E.M. Statistical comparisons among groups were analyzed by ANOVA with Tukey post hoc test, and differences between groups were analyzed by Student's t-test. Two-way ANOVA with Bonferroni's post hoc test was used to analyze differences in the time courses of locomotor activity among groups. Differences were considered significant if P<0.05.
Methamphetamine and apomorphine were dissolved in normal saline for i.p. And s.c. Injections, respectively. Tested compounds and haloperidol, when given by i.p. Injection, were dissolved in a vehicle containing 20% dmso, 20% Cremophor® el (polyoxyethylene castor, sigma-aldrich) and 60% normal saline. Furosemide was dissolved (20 nmole/μL) in dimethylsulfoxide for intra-cerebellar microinjection the i.p. or s.c. Injection volume was 10 mL/kg.

[2] = Microsomal stability assay, human liver microsomes; assay type: in vitro ADME; details: 10 μM test compound, 0.5 mg/mL protein, 37° C.
Method: (§1) 4 μL of 1 mM test compound at a final concentration of 10 μM dissolved in DMSO/ACN/Methanol/Ethanol was preincubated at 37° C. for 5 minutes on a digital heating shaking dry bath (Fischer scientific, Pittsburgh, Pa.) in a mixture containing 282 μL of water, 80 μL of phosphate buffer (0.5 M, pH 7.4), 20 μL of NADPH Regenerating System Solution A (BD Bioscience, San Jose, Calif.) and 4 μL of NADPH Regenerating System Solution B (BD Bioscience, San Jose, Calif.) in a total volume of 391.2 μL. Following preincubation, the reaction was initiated by addition of 8.8 μL of either human liver microsomes (BD Gentest, San Jose, Calif.), mouse liver microsomes (Life technologies, Rockford, Ill.), at a protein concentration of 0.5 mg/mL. Aliquots of 50 μL were taken at time intervals of 0 (without microsomes), 10, 20, 30, 40, 50 and 60 minutes. Each aliquot was added to 100 μL of cold acetonitrile solution containing 1 μM/2 μM internal standard. This was followed by sonication for 10 seconds and centrifugation at 10,000 rpm for 5 minutes. 100 μL of the supernatant was transferred into Spin-X HPLC filter tubes (Corning Incorporated, NY) and centrifuged at 13,000 rpm for 5 minutes. […] The ratio of the peak areas of the internal standard and test compound was calculated for every time point and the natural log of the ratio were plotted against time to determine the linear slope (k). […] All experiments were repeated three times in duplicates.

α6β3γ2 receptor = biological target: T1, α6β3γ2 receptor (Rattus norvegicus, UniProt P30191+P63079); experiment: Electrophysiology in Xenopus oocytes, modulation of GABA currents; assay type: cell-based; details: modulation of GABA EC3 currents
T1 construct: expressed in transfected cells; host or cells: Xenopus laevis oocytes injected with subunit mRNA (3:1:5)
T1 sequence (P30191 20-453): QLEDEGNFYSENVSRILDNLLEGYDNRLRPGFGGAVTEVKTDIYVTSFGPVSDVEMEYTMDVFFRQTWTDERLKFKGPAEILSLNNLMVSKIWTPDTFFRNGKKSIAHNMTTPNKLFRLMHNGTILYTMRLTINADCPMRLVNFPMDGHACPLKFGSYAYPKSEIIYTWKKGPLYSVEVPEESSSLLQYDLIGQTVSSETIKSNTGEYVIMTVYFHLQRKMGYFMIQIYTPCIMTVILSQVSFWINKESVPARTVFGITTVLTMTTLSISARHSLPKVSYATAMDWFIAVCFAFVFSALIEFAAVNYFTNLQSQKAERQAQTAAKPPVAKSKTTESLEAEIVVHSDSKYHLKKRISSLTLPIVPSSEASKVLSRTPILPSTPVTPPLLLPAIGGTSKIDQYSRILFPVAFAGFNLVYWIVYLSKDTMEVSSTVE
T1 sequence (P63079 26-473): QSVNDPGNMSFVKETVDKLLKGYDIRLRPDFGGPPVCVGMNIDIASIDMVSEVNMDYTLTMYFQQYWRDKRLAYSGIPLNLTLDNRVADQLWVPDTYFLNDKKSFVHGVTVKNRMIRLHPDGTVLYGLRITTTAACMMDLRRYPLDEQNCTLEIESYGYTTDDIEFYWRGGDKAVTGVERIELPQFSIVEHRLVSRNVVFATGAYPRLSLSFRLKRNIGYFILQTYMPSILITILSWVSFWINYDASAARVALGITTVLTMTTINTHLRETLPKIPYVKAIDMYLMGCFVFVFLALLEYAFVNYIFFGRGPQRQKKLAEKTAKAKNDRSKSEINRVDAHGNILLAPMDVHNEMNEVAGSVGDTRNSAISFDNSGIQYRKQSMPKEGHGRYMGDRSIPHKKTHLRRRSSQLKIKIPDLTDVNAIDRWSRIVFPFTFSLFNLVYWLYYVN
T1 sequence (P18508 39-466 partner): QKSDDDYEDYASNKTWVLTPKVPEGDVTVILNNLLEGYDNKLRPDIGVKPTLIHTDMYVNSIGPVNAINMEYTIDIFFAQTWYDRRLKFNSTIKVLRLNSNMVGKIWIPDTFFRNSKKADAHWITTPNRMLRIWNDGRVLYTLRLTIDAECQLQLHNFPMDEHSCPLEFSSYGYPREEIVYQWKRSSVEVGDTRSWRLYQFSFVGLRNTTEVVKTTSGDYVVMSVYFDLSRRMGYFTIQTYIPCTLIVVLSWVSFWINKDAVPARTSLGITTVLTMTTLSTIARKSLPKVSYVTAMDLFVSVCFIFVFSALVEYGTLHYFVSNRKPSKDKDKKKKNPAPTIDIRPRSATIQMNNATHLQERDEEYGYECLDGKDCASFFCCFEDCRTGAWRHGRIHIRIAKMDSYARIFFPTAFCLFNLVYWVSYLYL
Method: Mature female Xenopus laevis (Nasco, Fort Atkinson, Wis., USA) were anaesthetized in a bath of ice-cold 0.17% Tricain (Ethyl-m-aminobenzoat, Sigma-Aldrich, St. Louis, Mo., USA) before decapitation and transfer of the frog's ovary to ND96 medium (96 mM NaCl, 2 mM KCl, 1 mM MgCl2, 5 mM HEPES; pH 7.5). Following incubation in 1 mg/mL collagenase (Sigma-Aldrich, St. Louis, Mo., USA) for 30 min, stage 5 to 6 oocytes were singled out of the ovary and defolliculated using a platinum wire loop. Oocytes were stored and incubated at 18° C. in NDE medium (96 mM NaCl, 2 mM KCl, 1 mM MgCl2, 5 mM HEPES, 1.8 mM CaCl2; pH 7.5) that was supplemented with 100 U per mL-1 penicillin, 100 μg per mL-1 streptomycin and 2.5 mM pyruvate. Oocytes were injected with an aqueous solution of mRNA. A total of 2.5 ng of mRNA per oocyte was injected. Subunit ratio was 1:1:5 for αxβγ2 (x=1, 2, 3, 5) and 3:1:5 for α4/6β3γ2 and αβδ receptors. Injected oocytes were incubated for at least 36 h before electrophysiological recordings. Oocytes were placed on a nylon-grid in a bath of NDE medium. For current measurements, the oocytes were impaled with two microelectrodes (2-3MΩ), which were filled with 2 M KCl. The oocytes were constantly washed by a flow of 6 mL per min-1 NDE that could be switched to NDE containing GABA and/or drugs. Drugs were diluted into NDE from DMSO solutions resulting in a final concentration of 0.1% DMSO. […] To test for modulation of GABA induced currents by compounds, a GABA concentration that was titrated to trigger 3-5% of the respective maximum GABA-elicited current of the individual oocyte (EC3-5) was applied to the cell together with various concentrations of tested compounds. All recordings were performed at room temperature at a holding potential of −60 mV using a Warner OC-725C TEV (Warner Instrument, Hamden, Conn., USA) or a Dagan CA-1B Oocyte Clamp or a Dagan TEV-200A TEV (Dagan Corporation, Mineapolis, Minn., USA). Data were digitized using a Digidata 1322A or 1550 data acquisition system (Axon Instruments, Union City, Calif., USA), recorded using Clampex 10.5 software (Molecular Devices, Sunnyvale, Calif., USA), and analyzed using Clampfit 10.5 and GraphPad Prism 6.0 (La Jolla, Calif., USA) software. Concentration-response data were fitted using the Hill equation. Data are given as mean±SEM from at least three oocytes of two batches.
For selected test compounds full dose response curves were recorded in α1-6β3γ2 receptors. For selected compounds, dose response curves in additional receptor subtypes (α1, 4, 6β3δ, α6β1, 2γ2, α1-6β3) were also obtained. For a wider panel of compounds, a two point screening pharmacology was obtained at 1 and 10 μM compound concentrations.

[3] = Microsomal stability assay, mouse liver microsomes; assay type: in vitro ADME; details: 10 μM test compound, 0.5 mg/mL protein, 37° C.
Method: as §1

Structure (SMILES) | effect of intra-cerebellar furosemide on the rescue of PPI ([1]; furosemide 10 nmol intra-cerebellar microinjection) | rescue of METH-impaired PPI [1] | rescue of METH-impaired PPI ([1]; listed as C11) | % left after 1 hr. (HLM) [2] [%] | half-life at 10 μM ([2]; human, liver microsomes, pH 7.4, read-out: Half-life (min) (HLM)) | selectivity for α6β3γ2 over other αxβ3γ2 receptors (α6β3γ2 receptor) | % left after 1 hr. (MLM) [3] [%] | half-life at 10 μM ([3]; mouse, liver microsomes, pH 7.4, read-out: Half-life (min) (MLM)) | Half-life (min) (HLM) [2] | Half-life (min) (MLM) [3]
COc1ccc(-n2nc3c4cc(Cl)ccc4[nH]cc-3c2=O)cc1 [Compound 11, 8-Chloro-2-(4-methoxyphenyl)-2,5-dihydro-3H-pyrazolo[4,3-c]quinolin-3-one] | prevented | effective; also recorded: significantly rescued | significantly rescued | 72.5 ± 0.11 | 135 ± 5 | strongly modulates other GABAA receptor subtypes | 69.2 ± 0.15 | 116 ± 5.2 |  | 
[2H]C([2H])([2H])Oc1ccc(-n2nc3c4cc(Cl)ccc4[nH]cc-3c2=O)cc1 [DK-I-93-1, 8-Chloro-2-(4-methoxy-d3-phenyl)-2,5-dihydro-3H-pyrazolo[4,3-c]quinolin-3-one] |  |  |  | 92.2 ± 0.15 |  |  | 85.53 ± 0.07 |  | 640 ± 126 | 263 ± 5.96
COc1ccc2c3nn(-c4ccc(OC)nc4)c(=O)c-3c[nH]c2c1 [DK-II-13-1, 7-Methoxy-2-(6-methoxypyridin-3-yl)-2,5-dihydro-3H-pyrazolo[4,3-c]quinolin-3-one] |  |  |  | 93 ± 0.14 |  |  | 74.77 ± 0.12 |  | 794 ± 182 | 139.2 ± 5.8
COc1ccc(-n2nc3c4cc(Cl)ccc4[nH]cc-3c2=O)cn1 [DK-II-18-1, 8-Chloro-2-(6-methoxypyridin-3-yl)-2,5-dihydro-3H-pyrazolo[4,3-c]quinolin-3-one] |  |  |  | 91.6 ± 0.10 |  |  | 85.6 ± 0.12 |  | 511 ± 44 | 265 ± 17
[2H]C([2H])([2H])Oc1ccc(-n2nc3c4ccc(Br)cc4[nH]cc-3c2=O)cn1 [DK-II-58-1, 7-Bromo-2-(6-methoxy-d3-pyridin-3-yl)-2,5-dihydro-3H-pyrazolo[4,3-c]quinolin-3-one] |  |  |  | 97.8 ± 0.06 |  |  | 98.39 ± 0.06 |  | 2341 ± 0.001 | 4250 ± 0.001
[2H]C([2H])([2H])Oc1ccc(-n2nc3c4cc(Cl)ccc4[nH]cc-3c2=O)cn1 [DK-II-59-1, 8-Chloro-2-(6-methoxy-d3-pyridin-3-yl)-2,5-dihydro-3H-pyrazolo[4,3-c]quinolin-3-one] |  |  |  | 93 ± 0.12 |  |  | 85.1 ± 0.10 |  | 725.8 ± 146 | 250.62 ± 13
[2H]C([2H])([2H])Oc1ccc(-n2nc3c4ccc(OC)cc4[nH]cc-3c2=O)cn1 [DK-II-60-1, 7-Methoxy-2-(6-methoxy-d3-pyridin-3-yl)-2,5-dihydro-3H-pyrazolo[4,3-c]quinolin-3-one] |  |  |  | 92.5 ± 0.12 |  |  | 92.4 ± 0.12 |  | 592.5 ± 96 | 640 ± 102
